Patent US8273852B2, “Medium chain length polyhydroxyalkanoate polymer and method of making same” (Queen's University at Kingston, priority 2009, dated 2012)

How the values were obtained:
[1] = system: β-oxidation pathway; experiment: Continuous fermentation, cofeeding of octanoic acid and glucose, increasing acrylic acid; assay type: cell-based, Pseudomonas putida KT2440; settings: inflow acrylic acid 0.2 g/L
Experimental: (§1) Continuous fermentations were carried out in a 1.5 L stirred tank bioreactor (Bioflo IIc, New Brunswick Scientific, N.J., USA) with a working volume of 1.1 L. The fermentor was operated at 28.5±1° C. and the pH was automatically controlled at 6.85±0.05 using 2 N potassium hydroxide solution. The dissolved oxygen was monitored with an Ingold polarographic probe (available from Mettler-Toledo Ingold Inc., Bedford, Mass., USA) and maintained no lower than 30% air saturation with an aeration rate of 0.8 vvm (void volumes per minute) and an agitation speed up to 900 rpm. […] All other aqueous medium was mixed and fed together. The dilution rate of all continuous fermentations was controlled at […] by fixing the working volume and a constant aqueous medium feeding rate.
During shake flask, batch, fed-batch, or continuous cultivations, fermentation broth samples were taken. Known amounts of such broths were centrifuged to obtain the medium's supernatant and concentrated biomass. The biomasses were washed with distilled water, centrifuged again, re-suspended, frozen, and lyophilized to obtain dried biomass. […]
(§2) Dried samples were weighed to obtain dry biomass amounts. PHA content and composition were determined by gas chromatographic method as described below (Sun, Z., et al. (2007). Appl. Microbiol. Biotechnol., 74:69). […]

[2] = system: β-oxidation pathway; experiment: Continuous fermentation, nonanoic acid as sole carbon source, increasing acrylic acid; assay type: cell-based, Pseudomonas putida KT2440
Experimental: (§3) Continuous fermentations were carried out in a 1.5 L stirred tank bioreactor (Bioflo IIc, New Brunswick Scientific, N.J., USA) with a working volume of 1.1 L. The fermentor was operated at 28.5±1° C. and the pH was automatically controlled at 6.85±0.05 using 2 N potassium hydroxide solution. The dissolved oxygen was monitored with an Ingold polarographic probe (available from Mettler-Toledo Ingold Inc., Bedford, Mass., USA) and maintained no lower than 30% air saturation with an aeration rate of 0.8 vvm (void volumes per minute) and an agitation speed up to 900 rpm. Nonanoic acid was fed separately at controlled speed by a peristaltic nutrient pump on the bioreactor. All other aqueous medium was mixed and fed together. The dilution rate of all continuous fermentations was controlled at […] by fixing the working volume and a constant aqueous medium feeding rate.
During shake flask, batch, fed-batch, or continuous cultivations, fermentation broth samples were taken. Known amounts of such broths were centrifuged to obtain the medium's supernatant and concentrated biomass. The biomasses were washed with distilled water, centrifuged again, re-suspended, frozen, and lyophilized to obtain dried biomass. The supernatant was used to analyze carbon source, inhibitor, and nutrient concentration. […]
as §2
(§4) Known amount of dried biomass, or purified MCL-PHA, or MCL-PHA standard with known composition and elution time of each of its components, were reacted in 2 mL chloroform plus 1 mL methanol containing 15% (v/v) concentrated sulfuric acid as acidifying agent and 0.2% (w/v) benzoic acid as internal standard, at 100° C. for 4 hours. […] Methyl-3-hydroxyalkanoate was identified and its molar amount was calculated by comparing peak area to the corresponding peak of known methyl-3-hydroxyalkanoate generated from known MCL-PHA standard, which was characterized by NMR and GC/MS. […]

[3] = system: Pseudomonas putida KT2440; experiment: Shake flask growth with acrylic acid, absorbance at 650 nm; assay type: cell-based; settings: shake flasks
Experimental: A basic glucose-only shake flask medium was a 100 mL liquid medium in a 500 mL Erlenmeyer flask. The medium comprised (g L^−1): (NH4)2SO4 (4.70), MgSO4.7H2O (0.80), Na2HPO4.7H2O (12.0), KH2PO4 (2.70), glucose (9.0), nutrient broth (1.0).
The effect of acrylic acid on cell growth was determined using Pseudomonas putida KT2440 (ATCC 47054). Pseudonomas putida KT2440 (ATCC 47054) was maintained on nutrient agar plates at 4° C. before inoculation. The toxicity of a β-oxidation inhibitor, acrylic acid, to the growth of Pseudomonas putida KT2440 was determined by shake flask experiment. The cultivation conditions were 28° C. in a New Brunswick Shaker-Incubator at 200 rpm. The medium used was the basic glucose-only shake flask medium described above, plus appropriate amount of acrylic acid.
500 mL Erlenmeyer flasks were used with each containing 100 mL of medium. In addition to the basic medium described above, increasing concentrations of acrylic acid (AA) at 0, 0.2, 0.4, 0.8, 2.0 g/L were prepared in each flask. The first set of such flasks was cultured for 12 h and the second set of such flasks was cultured for 24 h. After the specified culturing time, a sample was taken to measure the absorbance at 650 nm in the spectrophotometer.

[4] = system: β-oxidation pathway; experiment: Continuous fermentation, cofeeding of dodecanoic acid and glucose, increasing acrylic acid; assay type: cell-based, Pseudomonas putida KT2440
Experimental: as §1
During shake flask, batch, fed-batch, or continuous cultivations, fermentation broth samples were taken. Known amounts of such broths were centrifuged to obtain the medium's supernatant and concentrated biomass. The biomasses were washed with distilled water, centrifuged again, re-suspended, frozen, and lyophilized to obtain dried biomass. The supernatant was used to analyze carbon source, inhibitor, and nutrient concentration. The dried biomass was used to obtain the cell concentration, cellular PHA content and composition.
as §2, §4

[5] = system: β-oxidation pathway; experiment: Continuous fermentation, cofeeding of nonanoic acid and glucose, increasing acrylic acid; assay type: cell-based, Pseudomonas putida KT2440; settings: inhibitor concentration increased from 0 to 0.15 g/L; value at highest concentration
Experimental: as §3
During shake flask, batch, fed-batch, or continuous cultivations, fermentation broth samples were taken. Known amounts of such broths were centrifuged to obtain the medium's supernatant and concentrated biomass. […]
as §2

[6] = system: β-oxidation pathway; experiment: Fed-batch fermentation, cofeeding of nonanoic acid, glucose and acrylic acid; assay type: cell-based, Pseudomonas putida KT2440; settings: nonanoic acid:glucose:acrylic acid 1.25:1:0.03 (w/w/w); by GC; throughout 32 hours fermentation
Experimental: Fed-batch fermentations were conducted in a 5 L stirred tank bioreactor with 3 L working volume (Minifors, INFORS HT, Bottmingen, Switzerland). The specific growth rate was controlled at 0.25 h^−1 or 0.15 h^−1 by exponentially feeding the carbon sources as growth-limiting nutrients. β-oxidation inhibitor was added with the glucose feeding solution at a fixed mass as specified in the related examples. […]
as §2, §4

C=CC(=O)O [acrylic acid]
mole percentage of C8 [1]: 98 mol % | PHA content ([2]; acrylic acid 0.2 g L^−1, nonanoic acid only carbon source): very little PHA content | molar C9 fraction of the PHA produced ([2]; at increased inhibitor concentration, nonanoic acid only, maximum reached): about 90% | acrylic acid concentration that affected monomeric composition ([2]; inflow concentration, nonanoic acid only, steady state): 0.02 g/L | reduction of Absorbance at λ=650 nm ([3]; acrylic acid 0.2 g L^−1, 12 h and 24 h cultures, glucose medium): two fold | cell growth ([3]; acrylic acid greater than 0.4 g L^−1): either weak growth or no growth | mole percentage of C12 ([4]; inflow acrylic acid 0.2 g/L (FIG. 10B)): 60 mol % | molar C12 content ([4]; inlet acrylic acid 0.1 g L^−1): 34.5% | molar C12 content ([4]; inlet acrylic acid 0.2 g L^−1): 59% | intracellular PHN content [5]: ~64% | mole percentage of C9 [5]: 96 mol % | monomeric composition, C9 (3-OH-nonanoate) [6]: 87.8±0.8 mol %
